The results in this text go back to PMC12189671, “Antioxidant Activity and Cytotoxicity Evaluation of New Catechol Hydrazinyl-Thiazole Derivatives as Potential Protectors in Retinal Degenerative Processes” (Antioxidants, 2025).

In general, IC50 refers to the concentration at which inhibition is half-maximal. One may read the viability as the share of living cells, or the viability signal relative to a control.

Data set [1] in a line: Reducing Power (RP) assay. Conditions: molar equivalents of reference compound. An excerpt:
The results of the evaluation of the electron ability transfer of the tested compound were expressed as molar equivalents of the reference compound per one mol of the tested compound using the formula: % of control activity=sample absorbance/reference absorbance×100 In the Reducing Power (RP) assay, the tested compounds reduce ferric ions from potassium ferricyanide, forming ferrocyanide, which produces a blue complex. The protocol used is an adaptation of previously reported methodologies. […] The tubes were sealed and incubated for 20 min in a water bath at 50 °C. […] Subsequently, 250 µL of the resulting solutions were mixed with 140 µL of FeCl3 solution (0.1% w/v) and 1000 µL of distilled water, and the absorbance of the resulting solutions was measured at λ = 695 nm.

Data set [2] in a line: Total Antioxidant Capacity (TAC) assay. As to conditions: molar equivalents of reference compound. The procedure: The results of the evaluation of the electron ability transfer of the tested compound were expressed as molar equivalents of the reference compound per one mol of the tested compound using the formula: % of control activity=sample absorbance/reference absorbance×100 The Total Antioxidant Capacity (TAC) assay operates on the principle of reducing molybdenum (VI) to molybdenum (V) by the antioxidants being assessed, resulting in the formation of a blue-green complex. This assay was performed following the methodology detailed in our previous publication, which was based on initial reports from the literature. […] These were then incubated in a water bath at 95 °C for 90 min. After cooling to room temperature, 1 mL of each solution was diluted with 1 mL of water. The absorbance of the solutions was subsequently measured at λ = 695 nm.

Data set [3] can be described thus: Cell viability (resazurin) on BJ. As to conditions: human, BJ cells; for IC50 at 24 h: read-out: 24 h Exposure IC50 (cytotoxicity); for IC50 at 48 h: read-out: 48 h Exposure IC50 (cytotoxicity). The data set is classed as cell-based. From the text:
(§1) The ARPE-19 cell line was purchased from CLS Cell Lines Service GmbH (Eppelheim, Germany) and cultured in Dulbecco’s modified Eagle’s medium/F-12 (HAM) 1:1 (Biological Industries, Beit, Israel). The medium was supplemented with 10% fetal bovine serum (FBS) (Thermo Fisher Scientific, Waltham, MA, USA) and 1% penicillin-streptomycin (Biosera, Cholet, France). The cancerous cell line A549 was purchased from ATCC (Manassas, VA, USA) and cultivated in high-glucose Dulbecco’s modified Eagle’s medium (DMEM 4.5 g/L). The normal BJ cell line was also purchased from ATCC (Manassas, VA, USA) and was cultivated in low-glucose Dulbecco’s modified Eagle’s medium (DMEM 1 g/L). The media was supplemented in both cases with 10% FBS. Cells were cultured in T75 flasks and incubated at 37 °C in a humidified incubator with 5% CO2 supplementation. For maintenance, the media was changed every 2–3 days, and when the confluence of the flask reached approximately 85%, the cells were either subcultured or further used in the experiments.
(§2) ARPE-19 cells were seeded at a density of 2 × 10^4 cells/well and 1 × 10^4 cells/well (suspended in 100 µL) in 96-well plates for 24 h and 48 h, respectively. For the BJ cells, the seeding density was 0.5 × 10^4 cells/well and 0.3 × 10^4 cells/well for 24 h and 48 h, respectively, and for the A549 cells, 1.5 × 10^4 cells/well for 24 h and 0.75 × 10^4 cells/well for 48 h. As cells have different sizes and volumes, the different seeding densities were selected to reach a confluency of 80–90% by the end of the experiments. Cells were further exposed to the synthesized compounds for 24/48 h at concentrations ranging from 12.5 to 500 µM. After the incubation period, the exposure media was removed, the cells were washed with PBS, and further incubated with a 200 µM resazurin solution for 3 h as described in our previous report. The conversion of resazurin to the fluorescent resorufin compound by viable cells was measured at λexcitation = 550; λemission = 600, using SpectraMax iD3 (Molecular Devices, San Jose, CA, USA). The experiments were conducted in biological triplicate, each with a minimum of 3 technical replicates. The measured viability was expressed as relative values to the control (cells exposed only to the vehicle–culture medium containing 0.4% DMSO).
Background: Resazurin is reduced to fluorescent resorufin, in cell work by metabolically active cells.

Data set [4] deals with rat microsomal membrane lipid peroxidation. Nature of the data set: Lipid peroxidation inhibition assay (LPI), 2-thiobarbituric acid method. Format: biochemical. Conditions: for IC50: ascorbic acid/Fe^2+ system, 37 °C, 45 min. The procedure:
Rat liver microsomes were homogenized in saline, and the resulting homogenates were centrifuged at 9000× g for 20 min at 4 °C to remove cell debris. The supernatant underwent ultracentrifugation at 110,000× g for 40 min at 4 °C. The pelleted microsomal fraction was subsequently washed with saline via another round of ultracentrifugation under identical conditions. Thereafter, the pellet was resuspended in Tris-HCl buffer (pH 7.4) to achieve a concentration equivalent to 0.5 g liver per mL and was stored until further analysis (at −80 °C). For the assay, the microsomal preparation was thermally inactivated by incubation at 90 °C for 90 s, then homogenized again and diluted to a final concentration equivalent to 4 mM fatty acid equivalents. […] All mixtures were incubated at 37 °C under air with continuous shaking. […] This was followed by heating at 90 °C for 20 min and centrifugation at 3000 rpm for 15 min. As a result of the breakdown of unsaturated fatty acids, malondialdehyde reacts with the 2-thiobarbituric acid to produce a pink compound due to the formation of a Schiff base. The extent of lipid peroxidation was measured spectrophotometrically at 535/600 nm, which is proportional to the amount of the chromogen reaction product formed between 2-thiobarbituric acid and malondialdehyde. The determinations were performed in triplicate, and the standard deviation was within ±10% of the mean value.

In another data set the test system is ARPE-19 cells. Kind of data set: Cell viability (resazurin) on ARPE-19. The data set is classed as cell-based, human. Conditions: ARPE-19, up to 50 µM.
From the text: as §1, §2

The nature of data set [5]: Cell viability (resazurin) on ARPE-19. The data set is classed as cell-based, human. As to conditions: human, ARPE-19 cells; for IC50 at 24 h: ARPE-19, 24 h, read-out: 24 h Exposure IC50 (cytotoxicity); for IC50 at 48 h: ARPE-19, 48 h, read-out: 48 h Exposure IC50 (cytotoxicity).
From the text: as §1, §2

Data set [6] in a line: DPPH radical scavenging assay. As to conditions: for IC50: 30 min incubation, λ = 517 nm. As to the method:
The DPPH^• radical scavenging assay is based on transferring a hydrogen atom from the tested compounds to the violet stable free radical DPPH^• (2,2-diphenyl-1-picrylhydrazyl radical), converting it into a yellow compound. The assay was conducted using tested compounds and references in concentrations ranging from 2 to 50 µM, according to our adaptation of the protocol of Brand-Williams et al.. The absorbance of the samples is given by the remaining unreacted reagent radical, and it is inversely proportional to the amount of DPPH^• neutralized. The absorbance of the samples was measured at λ = 517 nm after 30 min of incubation in the dark at room temperature. The DPPH^• radical scavenging activity of the compounds was calculated using Equation (1):(1) DPPH^• scavenging (%)=control absorbance−sample absorbance/control absorbance×100

For `C/C=C/C=N/Nc1nc(-c2ccc(O)c(O)c2)cs1.Cl` [Compound 5a, 4-(2-(2-((1E,2E)-but-2-en-1-ylidene)hydrazineyl)thiazol-4-yl)benzene-1,2-diol hydrochloride], in data set [1], the “RP Eq Ascorbic Acid” value is 2.55 Eq Ascorbic Acid and the “RP Eq Trolox” value worked out at 2.12 Eq Trolox. In data set [2], the “TAC Eq Ascorbic Acid” value was 2.82 Eq Ascorbic Acid. In addition, in data set [3], the IC50 at 24 h is 144 µM and the IC50 at 48 h was 162 µM. Further, in data set [4], the “fold more active than Trolox in lipid peroxidation inhibition” value is reported as “approximately 7.5 fold” and it took 3.34 µM to reach half-maximal inhibition (IC50). In addition, in the data set with ARPE-19 cells, the “effect on ARPE-19 cell viability” value was “slight proliferative effect”. Also, in data set [5], the IC50 at 24 h was found to be 90.1 µM and the IC50 at 48 h was found to be 92.7 µM. This compound came in with an IC50 in data set [6] of 9.8 µM. Besides, the “fold higher activity than the reference compounds in the DPPH^• scavenging assay” value in data set [6] (compared to ascorbic acid and Trolox) is “up to 5 fold”.
With `CC1=C(/C=C/C(C)=N/Nc2nc(-c3ccc(O)c(O)c3)cs2)C(C)(C)CCC1.Cl` [Compound 5b, 4-(2-(2-((2E,3E)-4-(2,6,6-trimethylcyclohex-1-en-1-yl)but-3-en-2-ylidene) hydrazineyl)thiazol-4-yl)benzene-1,2-diol hydrochloride], the “RP Eq Ascorbic Acid” value in data set [1] turned out to be 1.90 Eq Ascorbic Acid. Further, the “RP Eq Trolox” value in data set [1] was 1.58 Eq Trolox. The “TAC Eq Ascorbic Acid” value in data set [2] stood at 2.56 Eq Ascorbic Acid. Further, the IC50 at 24 h came out at 141 µM in data set [3] and 31.5 µM in data set [5]. Moreover, the IC50 at 48 h in data set [3] is 152 µM; in data set [5], 52.1 µM. The IC50 in data set [4] came out at 12.9 µM; in data set [6], 18.4 µM. Also, the viability at 24 h, 12.5 µM in data set [5] (ARPE-19, 24-h exposure, 12.5 µM, read-out: cell viability (% of control)) turned out to be 63.5%.
